Patent publication US20030021796A1, “Method of enhancing T cell immunity by selection of antigen specific T cells” (priority 2001, published 2003)
“Also recorded” adds a separate entry of the source. Residues, ends and D or L forms follow the SMILES beside them.

Legend:
[1] = system: transgenic CD4^+ thymocytes; test: Positive selection of CD4^+ thymocytes after peptide injection into TCR^TgTCRα^−H2-M^−Ii^− mice (flow cytometry of thymus); format: in vivo, mouse; conditions: for positive selection of transgenic thymocytes: i.p., non-deleting dose (20 μg); for percentage of CD4^+ single positive cells (thymus): 3 days after peptide injection; for effect on thymic selection: exogenous peptides without agonist properties
Text: Mice. The TCR genes were cloned from T cell hybridoma specific for analogs of the PCC(43-58) peptide and expressed in VA-hCD2 cassette (Ignatowicz et al., 1997; Kraj et al., 2001; Zhumabekov et al., 1995). All TCR transgenic mice were made by co-microinjection of the respective […] and TCRβ constructs into fertilized eggs of F1 (C57BL/6×CBA/Ca) mice. TCR Tg mice were crossed to C57B16/TCRα^− (Jackson Laboratory, ME) mice and to mice deficient in H2-M (kindly provided by E. Bikoff and R. Germain) and Ii (kindly provided by L. van Kaer) to obtain TCR^TgTCRα^− H2-M^−Ii^−.
(§1) Flow cytometry analysis. Monoclonal antibodies specific for CD4(RM4-5), CD8(53-6.7), VβB8(F23.1), CD69(H1.2F3), CD44(IM7) and CD62L(MEL-14) were purchased from PharMingen (San Diego, Calif.) and used according to manufacturer's recommendations. Cells were analyzed using a FACSCalibur instrument (Becton Dickinson, San Jose, Calif.) and CellQuest software. For intracellular stain cells were first stained for CD4 and CD8, fixed in 2% paraformaldehyde, permeabilized in 0.1% Tween-20 and stained with anti-bcl-2 antibody (Pharmingen) according to manufacturer instruction.
(§2) Peptide injections and surgical procedures. TCR^TgTCRα^− and TCR^TgTCRαH2-M^−Ii^− were injected i.p. with agonist and control peptides dissolved in PBS. After indicated time mice were sacrificed, thymus and lymph nodes were collected and single cell suspensions were prepared. Pups were injected with 2 μg of peptide subcutaneously 12-24 hours after birth and thymi were transplanted into recipient mice 24 hours after injection. 5-8 week old TCR^TgTCRα^− H2-M^−Ii^− mice were used for thymectomy or as thymic transplant recipients. Surgical procedures were performed as described (Coligan et al., 1997). Mice were handled according with the institutional guidance.

[2] = system: TCR^TgTCRα^− lymph node cells; test: Proliferation of TCR transgenic lymph node cells stimulated with agonist peptides ([3H]thymidine incorporation); format: cell-based, mouse; conditions: for recognition by the transgenic TCR / stimulation of transgenic cells: peptides presented by irradiated C57BL6 splenocytes; for agonist potency / agonist properties: in vitro stimulation of transgenic T cells
Description: Antigen response of TCR transgenic cells. Proliferation of lymph node cells isolated from TCR^TgTCRα^−and TCR^TgTCRα^−2-M^−Ii^− mice injected with the selecting peptide was measured in response to antigen. Response of the TCR^TgTCRα^− lymph node cells to different agonist peptides was measured by proliferation assay in a 96-well plate. 10^5 responder cells were stimulated with peptides presented by 5×10^5 irradiated C57BL6 splenocytes. Agonist peptides were used at concentrations of 0.01, 0.1, 0.5, 1.0, 2.5, 5.0, 10.0 and 20.0 μM. After 3 days cells were pulsed with 1 μCi of [^3H]thymidine added to each well and after 18 hours thymidine incorporation was measured. The sequences of peptides used were: PCC50V (AEGFSYTVANKNKGIT), PCC50L (AEGFSYTLANKNKGIT), PCC50V54A (AEGFSYTVANKAKGIT), PCC46A49A50V54A (AEGASYAVANKAKGIT), PCC50F54A (AEGFSYTFANKAKGIT), neutral ceramidase (AGFFQYTLYILASEG) and IgGVH (NADFKTPATLTVDKA). All peptides were synthesized by FMOC (fluorenyl methoxycarbonyl) chemistry and purified by reversed-phase high-performance liquid chromatography. To compare the antigenic response of CD4^+ TCR Tg cells lymph node cells were collected from TCR^TgTCRα^− and TCR^TgTCRα^−H2-M^−Ii^− mice two weeks after peptide injection. Single cell suspensions were prepared and CD4^+ cells were sorted using magnetic beads coated with anti CD4 antibodies (MACS). Purity of sorted cells exceeded 85%. 2×10^4 of purified CD4^+ cells were used in proliferation assay. Cells were stimulated with increasing concentrations of agonist peptides presented by APCs from wild type or H2-M^−Ii^− mice. IgGVH derived peptide (20 μM) was used as a negative control. Peptides were presented by irradiated splenocytes from a C57BL6 mouse. Proliferation was measured after 3 days by thymidine incorporation by pulsing cells with 1 μCi of [^3H] thymidine for 18 hours. Antagonism assay was done by prepulsing 5×10^5 antigen-presenting cells per well for 2 hr. with 5 μM of the antigenic peptide PCC50V54A, washing, and then exposing them to varying concentrations of peptide analogs with 2×10^4 purified CD4^+ TCR^Tg lymphocytes as responder cells (Lyons et al., 1996). For antagonism assays the percent of proliferation inhibition was calculated as 100-100*(thymidine incorporation in the presence of antagonist/thymidine incorporation in the absence of antagonist) (Lyons et al., 1996).

transgenic thymocytes = test: Negative selection of transgenic thymocytes after i.p. peptide injection into TCR^TgTCRα^− mice (wild type A^b); format: in vivo, mouse; conditions: 24 hours; for negative selection / deletion of transgenic thymocytes: 200 μg/mouse i.p.
Description: as §1, §2
Characterization of peptide agonists for the PCC specific transgenic αβTCR. To examine the role of peptides during positive selection in vivo, the inventors generated transgenic mice expressing class II restricted TCR specific for analogs of a pigeon cytochrome C peptide PCC(43-58) presented by the A molecule (Kraj et al., 2001). This receptor recognizes analogs of PCC(43-58) in which aspartic acid in position 50 is replaced by amino acids with neutral/hydrophobic (PCC50V, PCC50V54A, PCC46A49A50V54A, PCC50L, PCC50F) side chains (FIG. 6 and FIG. 9). The TCR transgenic mice were backcrossed to C57BL6 TCRα^− knockout mice so that almost all T cells expressing transgenic TCR become CD4^+ T cells (FIG. 4A and FIG. 10A). Initially, the inventors examined the capacity of agonist peptides to induce negative selection of transgenic T cells.

[3] = system: peptide selected CD4^+ cells; test: Antigen response (proliferation) of lymph node CD4^+ cells from peptide-injected TCR^TgTCRα^−H2-M^−Ii^− mice; format: cell-based, mouse
Description: Antigen response of TCR transgenic cells. Proliferation of lymph node cells isolated from TCR^TgTCRα^−and TCR^TgTCRα^−2-M^−Ii^− mice injected with the selecting peptide was measured in response to antigen. Response of the TCR^TgTCRα^− lymph node cells to different agonist peptides was measured by proliferation assay in a 96-well plate. 10^5 responder cells were stimulated with peptides presented by 5×10^5 irradiated C57BL6 splenocytes. Agonist peptides were used at concentrations of 0.01, 0.1, 0.5, 1.0, 2.5, 5.0, 10.0 and 20.0 μM. After 3 days cells were pulsed with 1 μCi of [^3H]thymidine added to each well and after 18 hours thymidine incorporation was measured. The sequences of peptides used were: PCC50V (AEGFSYTVANKNKGIT), PCC50L (AEGFSYTLANKNKGIT), PCC50V54A (AEGFSYTVANKAKGIT), PCC46A49A50V54A (AEGASYAVANKAKGIT), PCC50F54A (AEGFSYTFANKAKGIT), neutral ceramidase (AGFFQYTLYILASEG) and IgGVH (NADFKTPATLTVDKA). […] Proliferation was measured after 3 days by thymidine incorporation by pulsing cells with 1 μCi of [^3H] thymidine for 18 hours. […] For antagonism assays the percent of proliferation inhibition was calculated as 100-100*(thymidine incorporation in the presence of antagonist/thymidine incorporation in the absence of antagonist) (Lyons et al., 1996).

lymph node cells = test: Repopulation of peripheral lymph nodes in peptide-injected TCR^TgTCRα^−H2-M^−Ii^− mice; format: in vivo, mouse; conditions: for percentage of CD4^+ positive cells (lymph node): analyzed 12 days after injection
Description: as §1, §2

[4] = system: OT-II transgenic thymocytes; test: Selection of OT-II transgenic thymocytes in OT-II TCRα^−→TCRα^−H2M^−Ii^− chimeras after peptide injection; format: in vivo, mouse
Text: OT-II agonist peptide may be used for positive selection of transgenic CD4^+ cells. Injection of a low dose of agonist peptides restores positive selection of OT-II transgenic CD4^+ T cells in […] →TCRα^−2-M^−Ii^− chimeras. OT-II transgenic mice (C57BL/6TgN(TcrOva)) express a Class II restricted T cell receptor for ovalbumin residues 323-339 in the context of H-2^b. To determine if the experimental approach can be applied to other transgenic CD4^+ T cells, radiation chimeras were generated where TCRα^−H2-H2-M^−Ii^− mice were lethally irradiated and reconstituted with fetal liver from OT-II^TgTCRα^− mice. In these chimeras the development of OT-II^TgTCRα^− thymocytes is arrested at the CD4^+CD8^+ stage due to the lack of endogenous selecting peptides. After 8 weeks chimeras were injected once with different doses of the agonist Ova(323-339) peptide, which is a peptide present in the ovalbumin protein.

Compound: CC[C@H](C)[C@H](NC(=O)CNC(=O)[C@H](CCCCN)NC(=O)[C@H](CC(N)=O)NC(=O)[C@H](CCCCN)NC(=O)[C@H](CC(N)=O)NC(=O)[C@H](C)NC(=O)[C@H](CCC(=O)O)NC(=O)[C@@H](NC(=O)[C@H](Cc1ccc(O)cc1)NC(=O)[C@H](CO)NC(=O)[C@H](Cc1ccccc1)NC(=O)CNC(=O)[C@H](CCC(=O)O)NC(=O)[C@H](C)N)[C@@H](C)O)C(=O)N[C@H](C(=O)O)[C@@H](C)O [PCC50E] (H-AEGFSYTEANKNKGIT-OH)
- number of CD4^+ thymocytes positively selected by PCC50V54A on co-injection of antagonist ([1]; 3 μg antagonist + 3 μg PCC50V54A, four days later): significantly reduced

Compound: AEGASYAVANKAKGIT [PCC46A49A50V54A, analog of PCC(43-58); agonist]
- positive selection of transgenic thymocytes [1]: restored positive selection
- recognition by the transgenic TCR / stimulation of transgenic cells [2]: recognizes

Compound: AEGFSYTFANKAKGIT [PCC50F54A, analog of PCC(43-58); agonist]
- positive selection of transgenic thymocytes [1]: restored positive selection
- recognition by the transgenic TCR / stimulation of transgenic cells [2]: stimulate

Compound: AEGFSYTLANKNKGIT [PCC50L, analog of PCC(43-58)]
- positive selection of transgenic thymocytes [1]: restored positive selection
- agonist potency / agonist properties [2]: Strong agonists
- recognition by the transgenic TCR / stimulation of transgenic cells [2]: recognizes; also recorded: stimulate
- negative selection / deletion of transgenic thymocytes (transgenic thymocytes): induced profound negative selection

Compound: AEGFSYTVANKNKGIT [PCC50V, analog of PCC(43-58)]
- positive selection of transgenic thymocytes [1]: restored positive selection
- agonist potency / agonist properties [2]: moderate agonist
- recognition by the transgenic TCR / stimulation of transgenic cells [2]: recognizes; also recorded: stimulate
- negative selection of transgenic thymocytes (transgenic thymocytes; 20 μg i.p., thymus cellularity, annexin V, TUNNEL): did not induce negative selection
- negative selection / deletion of transgenic thymocytes (transgenic thymocytes): induced only marginal deletion; also recorded: induced only limited deletion

Compound: AGFFQYTLYILASEG [neutral ceramidase]
- positive selection of transgenic CD4^+ thymocytes ([1]; 50 μg i.p.): weak positive selection; also recorded: mediates positive selection
- percentage of CD4^+ single positive cells (thymus) ([1]; 50 μg i.p.): 1.7±0.6 percentage
- agonist potency / agonist properties [2]: weak agonist
- response of peptide selected CD4^+ cells to agonist peptides in vitro [3]: weakly proliferated; also recorded: respond in vitro
- CD4^+ cells in peripheral lymph nodes (lymph node cells; after i.p. injection, about two weeks): appeatence of CD4^+ lymphocytes in the peripheral lymph nodes
- percentage of CD4^+ positive cells (lymph node) (lymph node cells): 7.6±1.8 percentage

Compound: NADFKTPATLTVDKA [IgGVH, reference compound]
- percentage of CD4^+ single positive cells (thymus) ([1]; 50 μg i.p.): 0.8±0.4 percentage
- effect on thymic selection [1]: had no effect on thymic selection
- percentage of CD4^+ positive cells (lymph node) (lymph node cells): 2.4±0.8 percentage

Compound: Ova(323-339): peptide present in the ovalbumin protein; agonist for the OT-II TCR (KISQAVHAAHAEINEAG; UniProt P01012 323-339, looked up, fragment)
- effect on thymic selection [1]: had no effect on thymic selection
- negative selection of transgenic thymocytes ([4]; high dose (100 μg and above)): induced negative selection
- selection of CD4^+ thymocytes ([4]; low dose (5-20 μg)): induced selection of a significant number of CD4^+ thymocytes
- response of selected thymocytes to selecting peptide ([4]; mouse, in vivo): continued to respond to stimulation by selecting peptide; also recorded: retain their ability to respond to selecting peptide
- selection of transgenic CD4^+ thymocytes ([4]; single injection of 10 μg, 48 and 72 hours): initiates selection of transgenic CD4^+Vβ5^+ thymocytes
